Results published in ChEMBL document CHEMBL5032490, “Neuroactive Type-A γ-Aminobutyric Acid Receptor Allosteric Modulator Steroids from the Hypobranchial Gland of Marine Mollusk, Conus geographus” (J Med Chem, 2021).
The source made the active and inactive calls.

Key:
Neuron [1] = experiment: (§1) Reduction in Kcl-induced cytosolic calcium ion concentration in mouse DRG neurons at 10 microg/ml measured after 1 hr by Fura2AM dye based fluorescence microscopic analysis in response to Kcl; assay type: functional; conditions: dose 10.0 µg/ml
[2] = Induction of cytosolic calcium ion concentration in mouse DRG neurons at 10 microg/ml measured after 1 hr by Fura2AM dye based fluorescence microscopic analysis; assay type: functional, Neuron; conditions: dose 10 µg/ml
[3] = Induction of ATP-induced cytosolic calcium ion concentration in mouse DRG neurons assessed as neuron population at 10 microg/ml measured after 1 hr by Fura2AM dye based fluorescence microscopic; assay type: functional; conditions: dose 10 µg/ml
[4] = Reduction in ATP-induced cytosolic calcium ion concentration in mouse DRG neurons at 10 microg/ml measured after 1 hr by Fura2AM dye based fluorescence microscopic analysis in response to ATP; assay type: functional, Neuron; set-up: scale not given: the % may be the effect or the level left; conditions: dose 10 µg/ml
[5] = Induction of Kcl-induced cytosolic calcium ion concentration in mouse DRG neurons in response to Kcl at 10 microg/ml measured after 1 hr by Fura2AM dye based fluorescence microscopic analysis; assay type: functional, Neuron; conditions: dose 10 µg/ml
Neuron [6] = experiment: Effect on mouse GABA receptor expressed in mouse DRG neurons at 10 uM using cold thermosensors; assay type: tissue-based
Neuron [7] = experiment: Effect on mouse GABA receptor expressed in mouse peptidergic nociceptive DRG neurons at 10 uM; assay type: tissue-based
Neuron [8] = experiment: Effect on mouse GABA receptor expressed in mouse non-peptidergic nociceptive DRG neurons at 10 uM; assay type: tissue-based
Neuron [9] = experiment: Effect on mouse GABA receptor expressed in mouse C-low-threshold mechanoreceptors DRG neurons at 10 uM; assay type: tissue-based
[10] = as §1; assay type: functional, Neuron; set-up: scale not given: the % may be the effect or the level left; conditions: dose 10 µg/ml
[11] = Induction of cytosolic calcium ion concentration in mouse microglia cells at 10 uM measured after 1 hr by Fura2AM dye based fluorescence microscopic analysis; assay type: functional
[12] = Reduction of ATP and Kcl-induced increase in cytosolic Ca2+ ion concentration mouse DRG other neuron subtype assessed as neuron population at 10 uM measured after 1 hr by Fura2AM dye based fluorescence microscopic analysis; assay type: functional; set-up: scale not given: the % may be the effect or the level left
[13] = Induction of cytosolic calcium ion concentration in mouse peptidergic nociceptive DRG neuron at 10 uM measured after 1 hr by Fura2AM dye based fluorescence microscopic analysis; assay type: functional
[14] = Induction of ATP and Kcl-induced increase in cytosolic Ca2+ ion concentration mouse non-peptidergic nociceptive DRG neuron assessed as neuron population at 10 uM measured after 1 hr by Fura2AM dye based fluorescence microscopic analysis; assay type: functional
[15] = Reduction of ATP and Kcl-induced increase in cytosolic Ca2+ ion concentration mouse peptidergic nociceptive DRG neuron assessed as neuron population at 10 uM measured after 1 hr by Fura2AM dye based fluorescence microscopic analysis; assay type: functional; set-up: scale not given: the % may be the effect or the level left
[16] = Induction of cytosolic calcium ion concentration in mouse DRG other neuron subtype at 10 uM measured after 1 hr by Fura2AM dye based fluorescence microscopic analysis; assay type: functional
[17] = Induction of cytosolic calcium ion concentration in mouse non-peptidergic nociceptive DRG neuron at 10 uM measured after 1 hr by Fura2AM dye based fluorescence microscopic analysis; assay type: functional
[18] = Reduction of ATP and Kcl-induced increase in cytosolic Ca2+ ion concentration mouse non-peptidergic nociceptive DRG neuron assessed as neuron population at 10 uM measured after 1 hr by Fura2AM dye based fluorescence microscopic analysis; assay type: functional; set-up: scale not given: the % may be the effect or the level left
[19] = Induction of ATP and Kcl-induced increase in cytosolic Ca2+ ion concentration mouse […] assessed as neuron population at 10 uM measured after 1 hr by Fura2AM dye based fluorescence microscopic analysis; assay type: functional
[20] = Reduction of ATP and Kcl-induced increase in cytosolic Ca2+ ion concentration mouse […] assessed as neuron population at 10 uM measured after 1 hr by Fura2AM dye based fluorescence microscopic analysis; assay type: functional; set-up: scale not given: the % may be the effect or the level left
[21] = Induction of ATP and Kcl-induced increase in cytosolic Ca2+ ion concentration mouse peptidergic nociceptive DRG neuron assessed as neuron population at 10 uM measured after 1 hr by Fura2AM dye based fluorescence microscopic analysis; assay type: functional
[22] = Induction of ATP and Kcl-induced increase in cytosolic Ca2+ ion concentration mouse DRG other neuron subtype assessed as neuron population at 10 uM measured after 1 hr by Fura2AM dye based fluorescence microscopic analysis; assay type: functional

Row | SMILES | Activity [2] [%] | Activity [3] [%] | Activity [4] [%] | Activity [5] [%] | Activity (Neuron [6]) | Activity (Neuron [7]) | Activity (Neuron [8]) | Activity (Neuron [9]) | Activity [10] [%] | further results
1 | C[C@H](CC[C@@H](O)C(C)(C)O)[C@H]1CC[C@H]2[C@@H]3C(=O)C=C4C[C@H](O)CC[C@]4(C)[C@H]3CC[C@]12C | 19 | 33 | 3 | 54 | – | – | – | – | – | Activity (Neuron [1]): inactive
2 | CC(C)CCC[C@@H](C)[C@H]1CC[C@H]2[C@@H]3CC=C4C[C@@H](O)CC[C@]4(C)[C@H]3CC[C@]12C | – | – | – | – | inactive | inactive | inactive | inactive | – | –
3 | C[C@H](CCC(=O)C(C)(C)O)[C@H]1CC[C@H]2[C@@H]3C(=O)C=C4C=CCC[C@]4(C)[C@H]3CC[C@]12C | 35 | 9 | 17 | 22 | – | – | – | – | 2 | –
4 | C[C@H](CC[C@H](O)C(C)(C)O)[C@H]1CC[C@H]2[C@@H]3C(=O)C=C4C[C@@H](O)CC[C@]4(C)[C@H]3CC[C@]12C | 58 | 21 | 15 | 6 | – | – | – | – | 49 | Activity [11]: 4%; Activity [12]: 3%; Activity [13]: 37%; Activity [14]: 26%; Activity [15]: 4%; Activity [16]: 2%; Activity [17]: 15%; Activity [18]: 7%; Activity [19]: 3%; Activity [20]: 24%; Activity [21]: 45%; Activity [22]: 5%
5 | C[C@H](CCC(=O)O)[C@H]1CC[C@H]2[C@@H]3[C@H](O)C[C@@H]4C[C@H](O)CC[C@]4(C)[C@H]3C[C@H](O)[C@]12C | – | – | – | – | inactive | inactive | inactive | inactive | – | –
6 | C[C@H](CC[C@@H](O)C(C)(C)O)[C@H]1CC[C@H]2[C@@H]3C(=O)C=C4C=CCC[C@]4(C)[C@H]3CC[C@]12C | 3 | 36 | 3 | 38 | – | – | – | – | 4 | –
7 | CC(C)C(=O)CC[C@@H](C)[C@H]1CC[C@H]2[C@@H]3C(=O)C=C4C=CCC[C@]4(C)[C@H]3CC[C@]12C | 6 | 11 | 13 | 19 | – | – | – | – | 1 | –
8 | CC(C)[C@@H](C)/C=C/[C@@H](C)[C@H]1CC[C@H]2C3=CC=C4C[C@@H](O)CC[C@]4(C)[C@H]3CC[C@]12C | – | – | – | – | inactive | inactive | inactive | inactive | – | –
